{
  "source": "patent US7045600B2",
  "about": "“Modification of collagenous materials and medical treatment, diagnosis and monitoring of fibrotic conditions” (Nederlandse Organisatie voor …, priority 1999, dated 2006)",
  "molecules": {"B1": {"name": "TGF-β2: human recombinant TGF-β2 (protein, UniProt P61812 303-414, looked up)", "Transforming growth factor …": "ALDAAYCFRNVQDNCCLRPLYIDFKRDLGWKWIHEPKGYNANFCAGACPYLWSSDTQHSRVLSLYNTINPEASASPCCVSQDLEPLTILYYIGKTPKIEQLSNMIVKSCKCS"}, "B2": {"name": "TGF-β3: human recombinant TGF-β3 (protein, UniProt P10600 301-412, looked up)", "Transforming growth factor …": "ALDTNYCFRNLEENCCVRPLYIDFRQDLGWKWVHEPKGYYANFCSGPCPYLRSADTTHSTVLGLYNTLNPEASASPCCVPQDLEPLTILYYVGRTPKVEQLSNMVVKSCKCS"}},
  "key": {"[1]": {"system": "helical lysyl hydroxylase", "conditions": "cited from earlier work"}, "PLOD2B mRNA [2]": {"system": "PLOD2B mRNA", "assay": "PLOD2B mRNA levels by real-time PCR in minoxidil-treated human skin fibroblasts and myofibroblasts", "type": "cell-based", "conditions": "1 mM minoxidil, 41 hours, versus untreated (FIG. 8)", "method": "To substantiate that minoxidil suppresses the expression of PLOD2, human skin fibroblasts and myofibroblasts were cultured in 25 cm^2 flasks in DMEM (Gibco) supplemented with 10% FBS in 5% CO2. At near confluency the fibroblasts and myofibroblasts were incubated for 41 hours in medium containing 1 mM minoxidil. Minoxidil was dissolved at room temperature in medium with 10% FBS for 8 hours which was filtered prior to use. As a control both cell types were incubated for 41 hours in medium without minoxidil. At the end of the incubation period, the cells were washed with PBS and lysed with 600 μl RLT-buffer (RNeasy kit, Qiagen). RNA was isolated following the manufacturers protocol and subsequently reverse transcribed into cDNA (first strand cDNA synthesis kit, Roche Molecular Biochemicals). The levels of PLOD2B mRNA in the untreated and minoxidil-treated cells were quantified using real-time PCR as described in example 8. […]\nReal time PCR amplification of PLOD2 and β2-microglobulin was performed, using specific primers (PLOD2 forward primer: 5′ […] 3′ (SEQ ID NO:48) PLOD2 reverse primer: 5′ […] 3′ (SEQ ID NO:49)β2-microglobulin forward primer; 5′ […] 3 (SEQ ID NO:50)β32-microglobulin reverse primer 5′ […] 3′) (SEQ ID NO:51) and specific molecular beacons PLOD2: 5′ FAM-cgtgcg[…] […] Data was analysed using sequence detector V1.7 software."}, "[3]": {"system": "lysyl hydroxylation level of the telopeptides (pyridinoline cross-links) in chondrocytes", "assay": "Pyridinoline (HP and LP) cross-links in collagen from calf chondrocytes cultured in alginate beads with minoxidil", "type": "cell-based, calves", "conditions": "culture period of 20–50 days", "method": "Chondrocytes from the metacarpophalangeal joint of calves (12–14 months old, local slaughterhouse) were isolated by collagenase digestion: cartilage slices were minced and digested overnight at 37° C. in 0.14% (w/v) collagenase (Worthington CLS2) in Dulbecco's modified Eagle's medium (DMEM). After filtration of the suspension, cells were washed suspended in 1.2% (w/v) alginate (Keltone LVCR) in 0.9% NaCI at a density of 4×10^6 cells/ml, which was passed dropwise through a 22-gauge needle into 102 mM CaCl2. After 10 min of polymerization, beads were washed in 0.9% (w/v) NaCl (three times) and finally in complete medium: DMEM-Glutamax (Gibco BRL) supplemented with 100 U/ml of penicillin/streptomycin, 10% (v/v) foetal calf serum and 50 μg/ml ascorbic acid. The cells were cultured at 10 beads per 0.5 ml medium in a humid atmosphere of 5% CO2 in air at 37° C.; the medium was refreshed twice weekly. Minoxidil was dissolved in complete medium and added to the culture after 7 days of preculture under control conditions. Harvested beads were washed with 0.9% NaCl containing 10 mM CaCl2 and hydrolyzed in 900 μl 6 M HCl at 108° C. for 20–24 h. […] Based on hydroxyproline levels, amounts of collagen were calculated, assuming 300 hydroxyproline residues/triple helix. […] Crosslinks were expressed as amount of residues per collagen molecule."}, "PLOD2B mRNA [4]": {"system": "PLOD2B mRNA", "assay": "PLOD2B mRNA levels by real-time PCR in TGF-β-treated human skin fibroblasts", "type": "cell-based", "conditions": "for increase of PLOD2B mRNA levels: human skin fibroblasts, 1, 5 or 10 nM, 50 hours, versus untreated (FIG. 9)", "method": "Human skin fibroblasts were cultured in 25 cm^2 flasks in DMEM (Gibco) supplemented with 10% FBS in 5% CO2. At near confluency the fibroblasts and myofibroblasts were incubated for 50 hours in medium containing 1, 5 or 10 nM human recombinant TGF-β1, -β2 or -β3. As a control, human skin fibroblasts were incubated for 50 hours in medium without the addition of TGF-β. At the end of the incubation period, the cells were washed with PBS and lysed with 600 μl RLT-buffer (RNeasy kit, Qiagen). RNA was isolated following the manufacturers protocol and subsequently reverse transcribed into cDNA (first strand cDNA synthesis kit, Roche Molecular Biochemicals). The levels of PLOD2B mRNA in the untreated and TGF-β treated cells were quantified using real-time PCR as described in example 8.\nRNA, obtained from cultured human skin fibroblasts and cultured human myofibroblast, was isolated using the RNeasy kit (Qiagen). To remove any genomic DNA in the RNA sample, a Dnase treatment was carried out, using RQ1 Rnase-free Dnase (Promega). RNA was then reverse transcripted into cDNA and subjected to real time PCR amplification.\nReal time PCR amplification of PLOD2 and β2-microglobulin was performed, using specific primers (PLOD2 forward primer: 5′ […] 3′ (SEQ ID NO:48) PLOD2 reverse primer: 5′ […] 3′ (SEQ ID NO:49)β2-microglobulin forward primer; 5′ […] 3 (SEQ ID NO:50)β32-microglobulin reverse primer 5′ […] 3′) (SEQ ID NO:51) and specific molecular beacons PLOD2: 5′ FAM-cgtgcg[…] (SEQ ID NO:52) cgcacg-DABCYL 3 ′; β2-microglobulin: 5′HEX-cgtgc[…] (SEQ ID NO:53) gcacg-DABCYL 3′). PLOD2 was amplified in a multiplex PCR together with β2-microglobulin in a total reaction volume of 25μl, containing 1×PCR buffer (Applied Biosystems), 0.4 mM of each dNTP, 3.5 mM Mg^2+, 250 nM of each target primer, 100 nM of each primer for μ2microglobulin and 1 unit Amplitaq Gold polymerase (Applied Biosystems). PCR was performed in a ABI PRISM® 7700 Sequence Detection System and consisted of a 5 minute interval at 95° C., followed by 40 cycles of 95° C. for 30 seconds, 56° C. for 40 seconds and 72° C. for 30 seconds. Data was analysed using sequence detector V1.7 software."}},
  "data": [
    {"molecule": "CCOC(=O)CC(SP(=O)(OC)OC)C(=O)OCC", "note": "(stereo not shown) [malaoxon]", "values": [
      {"measurement": "helical lysyl hydroxylase inhibition", "setting": "[1]", "value": "inhibit"}
    ]},
    {"molecule": "Nc1cc(N2CCCCC2)nc(N)[n+]1[O-]", "note": "[minoxidil]", "values": [
      {"measurement": "reduction of PLOD2B mRNA levels", "setting": "PLOD2B mRNA [2]; human myofibroblasts", "value": "about 15 fold"},
      {"measurement": "reduction of PLOD2B mRNA levels", "setting": "PLOD2B mRNA [2]; human skin fibroblasts", "value": 4, "unit": "fold"},
      {"measurement": "amount of pyridinolines (HP and LP), mean", "setting": "[3]; alginate beads cultured with 0.3 mM minoxidil", "value": "0.38 residues/collagen molecule"},
      {"measurement": "amount of pyridinolines (HP and LP), mean", "setting": "[3]; alginate beads cultured with 1.0 mM or 2.0 mM minoxidil", "value": "around 0.15 residues/collagen molecule"}
    ]},
    {"molecule": "CCOC(=O)CC(SP(=S)(OC)OC)C(=O)OCC", "note": "(stereo not shown) [malathion]", "values": [
      {"measurement": "helical lysyl hydroxylase inhibition", "setting": "[1]", "value": "inhibit"}
    ]},
    {"molecule": "TGF-β1: human recombinant TGF-β1", "values": [
      {"measurement": "increase of PLOD2B mRNA levels", "setting": "PLOD2B mRNA [4]", "value": "about 20 fold"}
    ]},
    {"molecule": "TGF-β", "values": [
      {"measurement": "expression of PLOD2B (FIG. 9 legend, in words)", "setting": "PLOD2B mRNA [4]; fibroblasts, TGF-β added to the culture medium", "value": "increased"}
    ]},
    {"molecule": "B1", "values": [
      {"measurement": "increase of PLOD2B mRNA levels", "setting": "PLOD2B mRNA [4]", "value": "about 20 fold"}
    ]},
    {"molecule": "B2", "values": [
      {"measurement": "increase of PLOD2B mRNA levels", "setting": "PLOD2B mRNA [4]", "value": "about 20 fold"}
    ]}
  ]
}
